# Reference: paper PMC6273373, “Elucidation of Transport Mechanism of Paeoniflorin and the Influence of Ligustilide, Senkyunolide I and Senkyunolide A on Paeoniflorin Transport through Mdck-Mdr1 Cells as Blood–Brain Barrier in Vitro Model” (Molecules, 2016)
# What was measured:
# [1] = tested on: P-gp; assay: Western blot of P-gp expression in MDCK-MDR1 cells; format: cell-based, canine; settings: 8 hours
# Procedure: Cells treated with different concentrations of LIG, SENA and SENI for 8 hours were subject to Western blot assay. Proteins were extracted from whole cell lysates and separated by sodium dodecyl sulfate–polyacrylamide gel electrophoresis, then transferred to a polyvinylidene fluoride (PVDF) membrane. The following primary antibodies were used: rabbit anti-P-gp (1:1000; Abcam, Cambridge, MA, USA) and mouse anti-β-actin (1:2000; Abcam). Membranes were then incubated with the horseradish peroxidase-conjugated secondary anti-bodies (1:5000; Abcam). The transferred proteins were incubated with enhanced chemiluminescence (ECL) substrate solution and visualized with the Image J program (Bio-Rad, Richmond, CA, USA). The relative levels were quantified densitometrically by using the Quantity One software (Bio-Rad Laboratories) and calculated according to the reference bands of β-actin.
# [2] = tested on: MDCK-MDR1 cell monolayers; assay: Transport of PF across MDCK-MDR1 cell monolayers (BBB in vitro model), LC-MS/MS; format: in vitro ADME, canine
# Procedure: (§1) Cell monolayers were pre-incubated in Hank's buffered salt solution (HBSS, pH 7.4) for 30 min at 37 °C. Transepithelial electrical resistance (TEER) values were measured across the monolayers using a Millipore Millicell ERS system equipped with chopstick electrodes (Millipore Corporation, Billerica, MA, USA). […] To measure apical (A)→basolateral (B) transporter, 0.5 mL of drug solution was added in A side and 1.5 mL of HBSS in B side. Basolateral (B)→apical (A) transporter was evaluated adding 1.5 mL of drug solution in B side and 0.5 mL of HBSS in A side. […] Each measurement was evaluated in triplicate. Cells were incubated in a 37 °C shaking incubator. […] The supernatants were transferred to autosampler vials and injected into the LC-MS system. An HPLC system consisting of a solvent-delivery system […], an autosampler SIL-30 AC, a column oven CTO-30 AC, a solvent degasser DGU-20A3 and a controller CBM-20A from […] was used in the study. Separation was conducted using a Phenomenex Kinetex NB-C18 (100 × 3.0 mm, 2.6 μm, Torrance, CA, USA). The column oven was maintained at 30 °C. The mobile phase was water as mobile phase A and acetonitrile as mobile phase B. […] The injection volume was set at 5 μL. The MS analysis was performed on a 4500 QTRAPTM system from Applied Biosystems (AB Sciex) equipped with Turbo V sources and Turbo IonsprayTM interface. Electrospray ionization was performed in negative mode. The mass spectrometric parameters were optimized as: Turbo Ion Spray (TIS) temperature, 650 °C; ion spray voltage, -4500 V; curtain gas, nitrogen, 30; nebulizing gas, 50; TIS gas, 50; declustering potential, -130 eV for PF, 0 eV for internal standard (IS, gastrodin); collision energy, -30 eV for PF, -35 eV for IS. […] Analyst SoftwareTM (version 1.6.1) was used to process the obtained data. […] The efflux ratio (ER) was calculated according to the following Equation (4): (4) […]→BL
# [3] = tested on: MDCK-MDR1 monolayers; assay: Transepithelial electrical resistance (TEER) before and after permeation; format: cell-based, canine; settings: after versus before permeation
# Procedure: Cell monolayers were pre-incubated in Hank’s buffered salt solution (HBSS, pH 7.4) for 30 min at 37 °C. Transepithelial electrical resistance (TEER) values were measured across the monolayers using a Millipore Millicell ERS system equipped with chopstick electrodes (Millipore Corporation, Billerica, MA, USA). Approximate MDCK-MDR1 values ranged from 500 to 800 Ω·cm^2. To measure apical (A)→basolateral (B) transporter, 0.5 mL of drug solution was added in A side and 1.5 mL of HBSS in B side. Basolateral (B)→apical (A) transporter was evaluated adding 1.5 mL of drug solution in B side and 0.5 mL of HBSS in A side. […] Transepithelial electrical resistance (TEER) of the monolayers was measured with the EVOM instrument (Millipore Corporation). The TEER of untreated cells and cells treated with LIG, SENI and SENA was determined in HBSS before and after the experiment. The measured TEER before the experiment was set as 100% and all other values were calculated according to this.
# [4] = Transport of PF across MDCK-MDR1 cell monolayers (BBB in vitro model), LC-MS/MS; format: in vitro ADME, canine; settings: dog
# Procedure: as §1
# [5] = tested on: P-gp (MDR1); assay: as above; format: in vitro ADME, canine; settings: dog, MDCK-MDR1, pH 7.4
# Procedure: as §1
# [6] = tested on: P-gp; assay: as above; format: in vitro ADME, canine; settings: dog, MDCK-MDR1, pH 7.4, 400 μg/mL PF + verapamil (P-gp inhibitor), mean ± SD (n = 3)
# Procedure: as §1
# [7] = enhancer 40 µg/mL with 400 µg/mL PF, versus PF alone
# [8] = enhancer 80 µg/mL with 400 µg/mL PF, versus PF alone
# [9] = enhancer 20 µg/mL with 400 µg/mL PF, versus PF alone
compound,measurement,setting,value
"CCC/C=C1\OC(=O)C2=C1CCC=C2 [LIG, ligustilide]",P-gp expression versus control group,[1]; 20 μg/mL,significantly down-regulated
same,P-gp expression versus control group,[1]; 40 μg/mL,markedly down-regulated
same,P-gp expression versus control group,[1]; 80 μg/mL,markedly down-regulated
same,Effect on A→B transport (Papp/flux) of PF,[2]; [7],significantly increased
same,Effect on A→B transport (Papp/flux) of PF,[2]; [8],significantly increased
same,TEER change during permeation studies,[3]; 20 μg/mL with 400 μg/mL PF,significantly decreased
same,TEER change during permeation studies,[3]; 40 μg/mL with 400 μg/mL PF,markedly decreased
same,TEER change during permeation studies,[3]; 80 μg/mL with 400 μg/mL PF,markedly decreased
"C[C@@]12C[C@@]3(O)O[C@@H](O1)[C@]1(COC(=O)c4ccccc4)[C@H]3C[C@@]12O[C@@H]1O[C@H](CO)[C@@H](O)[C@H](O)[C@H]1O [PF, paeoniflorin]","Papp A→B at 150 min, 400 μg/mL","[4]; MDCK-MDR1, pH 7.4, 400 μg/mL PF + 2.5 mmol/L EDTA-Na2, mean ± SD (n = 3)",2.74 ± 0.212 ×10⁻⁶ cm/s
same,"Papp A→B at 150 min, 100 μg/mL","[4]; MDCK-MDR1, pH 7.4, PF 100 μg/mL, MDCK-MDR1 monolayers, mean ± SD (n = 3)",0.697 ± 0.053 ×10⁻⁶ cm/s
same,"Papp A→B at 150 min, 200 μg/mL","[4]; MDCK-MDR1, pH 7.4, PF 200 μg/mL, MDCK-MDR1 monolayers, mean ± SD (n = 3)",0.691 ± 0.082 ×10⁻⁶ cm/s
same,"Papp A→B at 150 min, 400 μg/mL","[4]; MDCK-MDR1, pH 7.4, PF 400 μg/mL, MDCK-MDR1 monolayers, mean ± SD (n = 3)",0.587 ± 0.088 ×10⁻⁶ cm/s
same,"Papp A→B at 150 min, 600 μg/mL","[4]; MDCK-MDR1, pH 7.4, PF 600 μg/mL, MDCK-MDR1 monolayers, mean ± SD (n = 3)",0.666 ± 0.072 ×10⁻⁶ cm/s
same,"Papp A→B at 150 min, 800 μg/mL","[4]; MDCK-MDR1, pH 7.4, PF 800 μg/mL, MDCK-MDR1 monolayers, mean ± SD (n = 3)",0.705 ± 0.107 ×10⁻⁶ cm/s
same,Papp A→B at 150 min,"[4]; MDCK-MDR1, pH 7.4, PF 100-800 μg/mL, MDCK-MDR1 cells, read-out: Papp (A→B), range over tested concentrations",0.587 to 0.705 ×10⁻⁶ cm/s
same,"Papp B→A at 150 min, 100 μg/mL","[4]; pH 7.4, PF 100 μg/mL, MDCK-MDR1 monolayers, mean ± SD (n = 3)",1.55 ± 0.092 ×10⁻⁶ cm/s
same,"Papp B→A at 150 min, 200 μg/mL","[4]; pH 7.4, PF 200 μg/mL, MDCK-MDR1 monolayers, mean ± SD (n = 3)",1.48 ± 0.363 ×10⁻⁶ cm/s
same,"Papp B→A at 150 min, 400 μg/mL","[4]; pH 7.4, PF 400 μg/mL, MDCK-MDR1 monolayers, mean ± SD (n = 3)",1.3 ± 0.084 ×10⁻⁶ cm/s
same,"Papp B→A at 150 min, 600 μg/mL","[4]; pH 7.4, PF 600 μg/mL, MDCK-MDR1 monolayers, mean ± SD (n = 3)",1.44 ± 0.201 ×10⁻⁶ cm/s
same,"Papp B→A at 150 min, 800 μg/mL","[4]; pH 7.4, PF 800 μg/mL, MDCK-MDR1 monolayers, mean ± SD (n = 3)",1.42 ± 0.097 ×10⁻⁶ cm/s
same,"efflux ratio at 150 min, 100 μg/mL",[5],2.22
same,"efflux ratio at 150 min, 200 μg/mL",[5],2.13
same,"efflux ratio at 150 min, 400 μg/mL",[5],2.21
same,"efflux ratio at 150 min, 800 μg/mL",[5],2.01
same,"Papp A→B at 150 min, 400 μg/mL",[6],0.707 ± 0.062 ×10⁻⁶ cm/s
same,Increase of Papp (A→B) of PF in comparison with the non-EDTA-Na2 added,[2]; 400 μg/mL PF with 2.5 mmol/L EDTA-Na2,about five
same,Increase of Papp (A→B) of PF in comparison with the non-verapamil added,[2]; 400 μg/mL PF with verapamil,about 1.2 fold
same,ER (B→A/A→B),"[2]; PF 600 μg/mL, MDCK-MDR1 monolayers",2.156
same,B→A/A→B permeability ER,"[2]; PF, all tested concentrations, MDCK-MDR1 cells",more than 2
"CCCCC1OC(=O)C2=C1CCC=C2 (stereo not shown) [SENA, senkyunolide A]",P-gp expression versus control group,[1]; 20 μg/mL,significantly down-regulated
same,P-gp expression versus control group,[1]; 40 μg/mL,markedly down-regulated
same,P-gp expression versus control group,[1]; 80 μg/mL,markedly down-regulated
same,Effect on A→B transport (Papp/flux) of PF,[2]; [9],significantly increased
same,Effect on A→B transport (Papp/flux) of PF,[2]; [7],significantly increased
same,Increase of the transport of PF,"[2]; enhancer 80 µg/mL with 400 µg/mL PF, A→B, versus PF alone",approximately 109%
same,Effect on A→B transport (Papp/flux) of PF,[2]; [8],significantly increased
same,TEER change during permeation studies,[3]; 20 μg/mL with 400 μg/mL PF,markedly decreased
same,TEER change during permeation studies,[3]; 40 μg/mL with 400 μg/mL PF,markedly decreased
same,TEER change during permeation studies,[3]; 80 μg/mL with 400 μg/mL PF,significantly decreased
"CCC/C=C1\OC(=O)C2=C1CC[C@H](O)[C@H]2O [SENI, senkyunolide I]",P-gp expression versus control group,[1]; 20 μg/mL,markedly down-regulated
same,P-gp expression versus control group,[1]; 40 μg/mL,markedly down-regulated
same,P-gp expression versus control group,[1]; 80 μg/mL,markedly down-regulated
same,Effect on A→B transport (Papp/flux) of PF,[2]; [9],significantly increased
same,Effect on A→B transport (Papp/flux) of PF,[2]; [7],significantly increased
same,Effect on A→B transport (Papp/flux) of PF,[2]; [8],significantly increased
same,TEER change during permeation studies,[3]; 80 μg/mL with 400 μg/mL PF,markedly decreased
